Measured values from patent US20260125375A1 (Pfizer Inc., priority 2022, published 2026).

Columns and labels:
CBL-B (residues 36-427) = molecular target: T1, CBL-B (residues 36-427) (Homo sapiens, UniProt Q13191); assay: Ligand Displacement Assay (LDA), HTRF competitive binding against BODIPY-labeled fluorescent tracer, CBL-B; conditions: geometric mean of the number of tests, read-out: CBL-B Ki (nM) GMean
T1 construct: Purified CBL-B (residues 36-427) and C-CBL (residues 46-435) proteins from baculovirus-infected insect cells; made in house; host or cells: baculovirus-infected insect cells
Outline: (§1)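 Competition with a BODIPY fluorescent tracer was read by HTRF, each protein carrying an N-terminal biotinylated AviTag bound to Tb-streptavidin. Tracer KD values were set beforehand per protein; Ki derives from duplicate three-fold compound series ([…], 2% DMSO), averaged geometrically across tests.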

C-CBL (residues 46-435) = molecular target: T2, C-CBL (residues 46-435) (Homo sapiens, UniProt P22681); assay: Ligand Displacement Assay (LDA), HTRF competitive binding against BODIPY-labeled fluorescent tracer, C-CBL; conditions: geometric mean of the number of tests, read-out: C-CBL Ki (nM) GMean
T2 construct: Purified CBL-B (residues 36-427) and C-CBL (residues 46-435) proteins from baculovirus-infected insect cells; made in house; host or cells: baculovirus-infected insect cells
T2 sequence (P22681 46-435): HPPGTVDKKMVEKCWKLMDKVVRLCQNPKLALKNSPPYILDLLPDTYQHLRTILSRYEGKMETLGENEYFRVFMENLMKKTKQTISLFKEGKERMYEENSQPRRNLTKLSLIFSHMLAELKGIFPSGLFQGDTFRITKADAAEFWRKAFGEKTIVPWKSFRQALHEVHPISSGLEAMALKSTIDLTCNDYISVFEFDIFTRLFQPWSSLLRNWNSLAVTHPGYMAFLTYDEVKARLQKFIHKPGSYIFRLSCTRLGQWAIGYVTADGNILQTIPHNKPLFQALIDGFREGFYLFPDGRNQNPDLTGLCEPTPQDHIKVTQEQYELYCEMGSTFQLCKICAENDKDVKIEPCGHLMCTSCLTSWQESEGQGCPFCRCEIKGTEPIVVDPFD
Outline: as §1

WT CBL-B (36-427) = molecular target: T3, WT CBL-B (36-427) (Homo sapiens, UniProt Q13191); assay: Surface Plasmon Resonance (SPR) assay, binding affinity and kinetics, CBL-B; conditions: SPR at 10° C., biotinylated WT CBL-B (36-427) on streptavidin chip; geometric mean; read-out: CBL-B SPR Kd (nM) GMean
T3 construct: N-terminal biotinylated WT CBL-B (36-427) and C-CBL (46-435) were captured on a streptavidin (SA) coated sensor chip
Outline: (§2)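 Biotinylated WT CBL-B (36-427) or C-CBL (46-435) captured on streptavidin chip (~5000–6000 RU); binding at 10° C in HEPES buffer pH 7.2 with 2% DMSO. Multi-cycle: 2-fold, 10-point series from 10 or 100 μM, 90 s association. Single-cycle: 3-fold, 6-point, 0.001–1 μM, 120 s association, >5400 s dissociation.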

C-CBL (46-435) = molecular target: T4, C-CBL (46-435) (Homo sapiens, UniProt P22681); assay: Surface Plasmon Resonance (SPR) assay, binding affinity and kinetics, C-CBL; conditions: SPR at 10° C., biotinylated C-CBL (46-435) on streptavidin chip; geometric mean; read-out: C-CBL SPR Kd (nM) GMean
T4 construct: N-terminal biotinylated WT CBL-B (36-427) and C-CBL (46-435) were captured on a streptavidin (SA) coated sensor chip
T4 sequence (P22681 46-435): T2 sequence (P22681 46-435)
Outline: as §2

| Compound | Ki (CBL-B (residues 36-427)) | Ki (C-CBL (residues 46-435)) | Kd (WT CBL-B (36-427)) | Kd (C-CBL (46-435)) |
| --- | --- | --- | --- | --- |
| CN1CC[C@H](N(C)c2nc(C(F)(F)F)cc3c(-c4cccc([C@H](c5nncn5C)C5CCC5)c4)n[nH]c23)C1 [Example J12, 3-{3-[(R)-cyclobutyl(4-methyl-4H-1,2,4-triazol-3-yl)methyl]phenyl}-N-methyl-N-[(3S)-1-methylpyrrolidin-3-yl]-5-(trifluoromethyl)-1H-pyrazolo[3,4-c]pyridin-7-amine] | 16.1 nM | 118 nM | 16.1 nM | 240 nM |
| C[C@@H](c1nc(C(F)(F)F)cc2c(-c3cccc(C4(Cc5nncn5C)COC4)c3)n[nH]c12)N1CC(F)(F)C1 (single isomer, unassigned) [Example D45] | 19.9 nM | 80.3 nM | 5.2 nM | 83.9 nM |
| C[C@@H](c1nc(C(F)(F)F)cc2c(-c3cccc(C4(Cc5nncn5C)COC4)c3)n[nH]c12)N1CC(F)C1 (single isomer, unassigned) [Example D43] | 14.5 nM | 75.1 nM | 6.7 nM | 80.2 nM |
| CCNC(C)c1nc(C(F)(F)F)cc2c(-c3cccc(C4(Cc5nncn5C)COC4)c3)n[nH]c12 (single isomer, unassigned) [Example C84, (1ξ)-N-ethyl-1-[3-(3-{3-[(4-methyl-4H-1,2,4-triazol-3-yl)methyl]oxetan-3-yl}phenyl)-5-(trifluoromethyl)-1H-pyrazolo[3,4-c]pyridin-7-yl]ethan-1-amine] | 25.1 nM | 144 nM | 5.8 nM | 99 nM |
| CNc1nc2[nH]nc(-c3cccc([C@H](c4nncn4C)C4CCC4)c3)c2cc1C(F)(F)F [E2, 3-{3-[(R)-cyclobutyl(4-methyl-4H-1,2,4-triazol-3-yl)methyl]phenyl}-N-methyl-5-(trifluoromethyl)-1H-pyrazolo[3,4-b]pyridin-6-amine] | 244 nM | 2650 nM | 53.9 nM | 1730 nM |
| Cn1cnnc1[C@@H](c1cccc(-c2n[nH]c3c(CN4CCCCC4)nc(C(F)(F)F)cc23)c1)C1CCC1 [Example D95] | 40.7 nM | 360 nM | 6.5 nM | 226 nM |
| Cn1cnnc1CC1(c2cccc(-c3n[nH]c4c(CN5CCOCC5)nc(C(F)(F)F)cc34)c2)COC1 [Example C63, 3-(3-{3-[(4-methyl-4H-1,2,4-triazol-3-yl)methyl]oxetan-3-yl}phenyl)-7-[(morpholin-4-yl)methyl]-5-(trifluoromethyl)-1H-pyrazolo[3,4-c]pyridine] | 27 nM | 120 nM | 8 nM | 91.8 nM |
| Cn1cnnc1[C@@H](c1cccc(-c2n[nH]c3c(CN4C[C@@H](O)[C@@H](O)C4)nc(C(F)(F)F)cc23)c1)C1CCC1 [Example C75, (3R,4S)-1-{[3-{3-[(R)-cyclobutyl(4-methyl-4H-1,2,4-triazol-3-yl)methyl]phenyl}-5-(trifluoromethyl)-1H-pyrazolo[3,4-c]pyridin-7-yl]methyl}pyrrolidine-3,4-diol] | 5 nM | 54.8 nM | 4.7 nM | 97.9 nM |
| Cn1cnnc1CC1(c2cccc(-c3n[nH]c4c(CNC5CCC5)nc(C(F)(F)F)cc34)c2)COC1 [Example C57, N-{[3-(3-{3-[(4-methyl-4H-1,2,4-triazol-3-yl)methyl]oxetan-3-yl}phenyl)-5-(trifluoromethyl)-1H-pyrazolo[3,4-c]pyridin-7-yl]methyl}cyclobutanamine] | 18.9 nM | 96.3 nM | 3.3 nM | 116 nM |
| C[C@@H](c1nc(C(F)(F)F)cc2c(-c3cccc(C4(Cc5nncn5C)COC4)c3)n[nH]c12)N1CC[C@H](F)C1 (single isomer, unassigned) [Example D98] | 25.5 nM | 110 nM | 46 nM | 217 nM |
| Cn1cnnc1[C@@H](c1cccc(-c2n[nH]c3c(CN[C@@H]4CCOC4)nc(C(F)(F)F)cc23)c1)C1CCC1 [Example C104, (3R)-N-{[3-{3-[(R)-cyclobutyl(4-methyl-4H-1,2,4-triazol-3-yl)methyl]phenyl}-5-(trifluoromethyl)-1H-pyrazolo[3,4-c]pyridin-7-yl]methyl}oxolan-3-amine] | 28 nM | 218 nM | 8.2 nM | 328 nM |
| C[C@@H](N)c1nc(C(F)(F)F)cc2c(-c3cccc([C@H](c4nncn4C)C4CCC4)c3)n[nH]c12 [Example K13, (1R)-1-[3-{3-[(R)-cyclobutyl(4-methyl-4H-1,2,4-triazol-3-yl)methyl]phenyl}-5-(trifluoromethyl)-1H-pyrazolo[3,4-c]pyridin-7-yl]ethan-1-amine] | 27 nM | 215 nM | 12.1 nM | 285 nM |
| Cn1cnnc1[C@@H](c1cccc(-c2n[nH]c3c(CN4CC[C@H](F)C4)nc(C(F)(F)F)cc23)c1)C1CCC1 [Example C110, 3-{3-[(R)-cyclobutyl(4-methyl-4H-1,2,4-triazol-3-yl)methyl]phenyl}-7-{[(3S)-3-fluoropyrrolidin-1-yl]methyl}-5-(trifluoromethyl)-1H-pyrazolo[3,4-c]pyridine] | 50 nM | 464 nM | 6.4 nM | 300 nM |
| Cn1cnnc1[C@@H](c1cccc(-c2n[nH]c3c(C4CCCCN4)nc(C(F)(F)F)cc23)c1)C1CCC1 (single isomer, unassigned) [Example L1] | 74.2 nM | 439 nM | 40.7 nM | 697 nM |
| C[C@@H](c1nc(C(F)(F)F)cc2c(-c3cccc([C@H](c4nncn4C)C4CCC4)c3)n[nH]c12)N1CCNC(=O)C1 (single isomer, unassigned) [Example D88] | 3.9 nM | 35.2 nM | 5.7 nM | 34.1 nM |
| CC(N[C@@H]1CCOC1)c1nc(C(F)(F)F)cc2c(-c3cccc(C4(Cc5nncn5C)COC4)c3)n[nH]c12 (single isomer, unassigned) [Example C85] | 15.2 nM | 92.5 nM | 2.1 nM | 82.5 nM |
| Cn1cnnc1[C@@H](c1cccc(-c2n[nH]c3c(CN4CCNCC4)nc(C(F)(F)F)cc23)c1)C1CCC1 [Example D84] | 21.9 nM | 144 nM | 5.6 nM | 148 nM |
| CN1CC[C@@H](N(C)c2nc(C(F)(F)F)cc3c(-c4cccc([C@H](c5nncn5C)C5CCC5)c4)n[nH]c23)C1 [Example J11, 3-{3-[(R)-cyclobutyl(4-methyl-4H-1,2,4-triazol-3-yl)methyl]phenyl}-N-methyl-N-[(3R)-1-methylpyrrolidin-3-yl]-5-(trifluoromethyl)-1H-pyrazolo[3,4-c]pyridin-7-amine] | 41.6 nM | 275 nM | 24 nM | 393 nM |
| CCNCc1nc(C(F)(F)F)cc2c(-c3cccc(C4(Cc5nncn5C)COC4)c3)n[nH]c12 [Example C56, N-{[3-(3-{3-[(4-methyl-4H-1,2,4-triazol-3-yl)methyl]oxetan-3-yl}phenyl)-5-(trifluoromethyl)-1H-pyrazolo[3,4-c]pyridin-7-yl]methyl}ethanamine] | 43.6 nM | 201 nM | 11 nM | 150 nM |
| C[C@H]1CN(Cc2nc(C(F)(F)F)cc3c(-c4cccc(C5(Cc6nncn6C)COC5)c4)n[nH]c23)CCO1 [Example C58, 7-{[(2S)-2-methylmorpholin-4-yl]methyl}-3-(3-{3-[(4-methyl-4H-1,2,4-triazol-3-yl)methyl]oxetan-3-yl}phenyl)-5-(trifluoromethyl)-1H-pyrazolo[3,4-c]pyridine] | 14.8 nM | 82.4 nM | 5.8 nM | 54.1 nM |
| CN(C)c1nc(C(F)(F)F)cc2c(-c3cccc(C4(Cc5nncn5C)COC4)c3)n[nH]c12 [Example J9, N,N-dimethyl-3-(3-{3-[(4-methyl-4H-1,2,4-triazol-3-yl)methyl]oxetan-3-yl}phenyl)-5-(trifluoromethyl)-1H-pyrazolo[3,4-c]pyridin-7-amine] | 92.2 nM | 228 nM | 30.1 nM | 244 nM |
| C[C@H](c1nc(C(F)(F)F)cc2c(-c3cccc(C4(Cc5nncn5C)COC4)c3)n[nH]c12)N1CCNC(=O)C1 (single isomer, unassigned) [Example D52] | 31.9 nM | 118 nM | 10.1 nM | 79.1 nM |
